Reference: patent US11352352B2, “Aminopyrimidine compound, preparation method therefor and use thereof” (BEIJING ADAMADLE BIOTECHNOLOGY LIMITED LIABILITY COMPANY, priority 2017, dated 2022)

Assays:
NCI-H1975 = experiment: Cell proliferation inhibition experiment, CellTiter-Glo (CTG) method; type: cell-based; conditions: for IC50: Homo sapiens, NCI-H1975, 72 h, NCI-H1975 cells, CTG, 3 days; for A-431/NCI-H1975 Selectivity: ratio of A-431 IC50 to NCI-H1975 IC50
Method in brief: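 NCI-H1975 cells with viability above 90% by trypan blue were seeded at 90 μL per well in black 96-well plates and incubated overnight at 37° C., 5% CO2. Compounds were added at nine concentrations in triplicate, and viability was measured with CellTiter-Glo luminescence on EnVision. IC50 came from non-linear S-curve fitting in GraphPad Prism 5.0.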

PC-9 = experiment: as above; type: cell-based; conditions: Homo sapiens, PC-9, 72 h, PC-9 cells, 3 days
Method in brief: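 Cells in log-phase growth (viability above 90% by trypan blue) were seeded at 90 μL per well in black-walled, clear-bottom 96-well plates and incubated overnight at 37° C., 5% CO2. A T0 plate was read the next day. Test compounds were added at nine concentrations in triplicate with a solvent control. Viability was measured by CellTiter-Glo luminescence on EnVision, and IC50 came from non-linear S-curve fitting in GraphPad Prism 5.0.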

P-gp = biological target: T1, P-gp (Homo sapiens, UniProt P08183); experiment: P-gp substrate evaluation experiment (MDCKII-MDR1 Transwell drug penetration test); type: in vitro ADME; conditions: dog, MDCK-MDR1, pH 7.4; read-out: ER (Efflux Ratio)
T1 construct: expressed in transfected cells; host or cells: MDCKII-MDR1 (MDCKII canine kidney cells expressing MDR1)
Protocol: P-gp Substrate Evaluation Experiment
Cell Culture • 1) High glucose DMEM medium containing L-glutamine was used and 10% fetal bovine serum, 0.1 mg/mL streptomycin and 0.6 mg/mL penicillin were added. • 2) MDCKII-MDR1 was cultured in a T-75 cell culture bottle. The incubator was set at the condition of 37° C., 5% CO2 and 95% relative humidity. Cells could be inoculated in Transwell when the cell confluence reached 70-90%. • 3) Before cell plant, 50 μL cell culture medium was added to each well in the upper chamber of the Transwell, and […] cell culture medium was added to the lower chamber of the Transwell.
Inoculation of MDCKII-MDR1 Cells • 1) Cell suspension was added to the upper chamber of the 96-well Transwell plate with […] each well, and the final inoculation density was 5.45×10^5 cells/cm^2. • 2) The medium was changed 48 hours after inoculation, the culture was carried out for 4-7 days, and the medium was changed every other day.
Evaluation of Cell Monolayer Integrity • 1) After 4-7 days of culture, MDCKII-MDR1 and MDKII should merge and differentiate completely. At this time, they could be applied to penetration test. • 2) The resistance of cell monolayer was measured by a resistance meter (Millipore, USA) and the resistance of each well was recorded. • 3) After finishing the detection, the Transwell plate was put back into the incubator. • 4) Resistance value was calculated: Resistance measured (ohms)×layer area (cm^2)=TEER value (ohm·cm^2)
If TEER value was less than 42 ohms·cm^2, the well can not be used for penetration testing.
Drug Penetration Test • 1) The MDCKII-MDR1 Transwell plate was taken out from the incubator. The cell monolayer was rinsed with HBSS buffer (25 mM HEPES, pH 7.4) twice and incubated for 30 minutes at 37° C. • 2) The transport rate of compounds from the top to the bottom was determined. […] 70 μL supernatant was drawn, diluted with equal volume of water and then subjected to LC-MS/MS analysis. All samples were prepared in three parallel ways. • 6) The cell monolayer integrity after 2-hour incubation was evaluated by leakage of fluorescent yellow, HBSS (25 mM HEPES, pH 7.4) was used to dilute the stock solution of fluorescent yellow till the final concentration was 100 μM. 100 μL fluorescent yellow solution was added to each well in the upper chamber of the Transwell plate and 300 μL HBSS (25 mM HEPES, pH 7.4) was added to each well in the lower chamber of the Transwell plate. After incubation at 37° C. for 30 minutes, 80 μL solution was drawn respectively from each well in the upper and lower chamber to a new 96-well plate. The fluorescence was determined at 485 nm as excitation wavelength and 530 nm as emission wavelength by using a microplate reader.
Data calculation was carried out through Excel, the apparent permeability index (Papp, cm/s) of compounds was calculated through the formula shown as follow: […]
wherein, the membrane area in the formula is the membrane area of Transwell-96 plate (0.143 cm^2); the unit of incubation time is second (s).
Efflux ratio was calculated through the formula shown as follow: […]

A-431 = experiment: Cell proliferation inhibition experiment, CellTiter-Glo (CTG) method; type: cell-based; conditions: Homo sapiens, A-431, 72 h, A-431 cells, 3 days
Method in brief: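 CTG luminescence measured after 3-day compound exposure, with a T0 plate read the day after seeding and solvent wells as control. Nine concentrations, 3-fold steps, in triplicate: A-431 from 30 μM, NCI-H1975 and PC-9 from 1.111 μM. IC50 derived by non-linear S-curve regression.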

T1 sequence (P08183 whole entry): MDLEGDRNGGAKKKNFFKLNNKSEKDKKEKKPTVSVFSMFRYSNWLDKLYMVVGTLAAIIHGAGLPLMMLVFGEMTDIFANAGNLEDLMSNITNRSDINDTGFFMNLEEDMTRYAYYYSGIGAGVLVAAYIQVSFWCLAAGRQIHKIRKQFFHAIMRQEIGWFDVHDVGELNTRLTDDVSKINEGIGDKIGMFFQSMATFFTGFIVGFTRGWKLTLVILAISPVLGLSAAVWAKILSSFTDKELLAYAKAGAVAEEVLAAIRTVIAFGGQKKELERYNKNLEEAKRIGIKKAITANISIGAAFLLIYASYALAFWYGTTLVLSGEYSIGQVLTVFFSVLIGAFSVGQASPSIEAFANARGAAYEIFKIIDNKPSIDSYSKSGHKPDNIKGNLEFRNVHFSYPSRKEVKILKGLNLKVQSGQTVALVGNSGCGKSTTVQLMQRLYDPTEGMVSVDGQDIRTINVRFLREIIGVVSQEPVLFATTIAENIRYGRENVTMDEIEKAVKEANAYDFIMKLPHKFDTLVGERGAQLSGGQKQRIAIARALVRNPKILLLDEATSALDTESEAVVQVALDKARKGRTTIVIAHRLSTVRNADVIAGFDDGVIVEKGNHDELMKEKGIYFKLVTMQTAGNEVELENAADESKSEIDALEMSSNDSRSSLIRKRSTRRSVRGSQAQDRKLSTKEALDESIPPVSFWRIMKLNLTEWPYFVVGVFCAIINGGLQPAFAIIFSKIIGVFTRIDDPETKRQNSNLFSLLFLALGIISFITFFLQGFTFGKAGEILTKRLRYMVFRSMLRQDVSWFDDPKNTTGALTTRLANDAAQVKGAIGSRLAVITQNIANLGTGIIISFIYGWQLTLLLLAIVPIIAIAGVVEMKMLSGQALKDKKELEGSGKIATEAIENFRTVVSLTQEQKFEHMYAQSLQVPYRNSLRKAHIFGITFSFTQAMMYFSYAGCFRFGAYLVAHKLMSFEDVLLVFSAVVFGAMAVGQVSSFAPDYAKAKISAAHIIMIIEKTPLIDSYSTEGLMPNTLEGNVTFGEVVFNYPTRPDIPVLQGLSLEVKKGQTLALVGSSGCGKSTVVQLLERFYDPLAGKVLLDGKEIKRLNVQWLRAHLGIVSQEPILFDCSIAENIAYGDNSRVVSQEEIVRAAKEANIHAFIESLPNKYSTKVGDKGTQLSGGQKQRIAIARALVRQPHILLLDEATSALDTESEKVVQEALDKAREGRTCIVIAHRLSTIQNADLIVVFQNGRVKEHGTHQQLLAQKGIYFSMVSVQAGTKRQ

Row | Structure (SMILES) | IC50 (NCI-H1975) | A-431/NCI-H1975 Selectivity (NCI-H1975) | IC50 (PC-9) | efflux ratio at 2 h (P-gp) | IC50 (A-431)
1 | C=CC(=O)Nc1cc(Nc2cc(-c3ccc4c(cnn4C)c3)ncn2)c(OC)cc1N1C[C@@H](C)N(C)[C@@H](C)C1 [compound 24] | 11.8 nM | 90.1 | 8.1 nM | 1.05 | 1060 nM
2 | C=CC(=O)Nc1cc(Nc2cc(-c3ccc4c(cnn4C)c3)ncn2)c(OC)cc1N1CCC(N2CCN(C(C)=O)CC2)CC1 [compound 129] | 8 nM | 93.3 | 13.1 nM | 55.7 | 746 nM
3 | C=CC(=O)Nc1cc(Nc2cc(-c3ccc4cnn(C)c4c3)ncn2)c(OC)cc1N1CCC(N2C[C@@H](C)O[C@@H](C)C2)CC1 [compound 155] | 13.6 nM | 64.2 | 6 nM | 0.93 | 874 nM
4 | C=CC(=O)Nc1cc(Nc2cc(-c3ccc4c(cnn4C)c3)ncn2)c(OC(F)F)cc1N1CCC(N(CC)CC)CC1 [compound 168] | 6.8 nM | 85.9 | 21.5 nM | 23.1 | 584 nM
5 | C=CC(=O)Nc1cc(Nc2cc(-c3ccc4c(cnn4C)c3)ncn2)c(OC)cc1N1CCN(C)CC1 [compound 8] | 3.5 nM | 251.1 | 27.3 nM | 3.14 | 872 nM
6 | C=CC(=O)Nc1cc(Nc2cc(-c3ccc4c(cnn4C)c3)ncn2)c(OC)cc1N1CCN(CCO)CC1 [compound 267] | 16.1 nM | 64.4 | 29.3 nM | 14.6 | 1040 nM
7 | C=CC(=O)Nc1cc(Nc2cc(-c3ccc4c(cnn4C)c3)ncn2)c(OC)cc1N1CCC(N(C)C)CC1 [compound 26] | 10.4 nM | 20.7 | 9.1 nM | 5.79 | 216 nM
